We go through one substance from US20130129656A1, “"GREEN" DIESTER AMINES AND PERSONAL CARE PRODUCTS” (CRODA, INC., priority 2010, published 2013).

Series [1] in a line: Biodegradability via method OECD 301B. Particulars: after 29 days. From the text: In some embodiments, the compounds of the present invention are biodegradable as provided by standardized OECD 301B testing. The testing methodology is described in the “OECD Guideline for Testing Chemicals,” section 301, the disclosure of which is incorporated by reference. Specifically, the compounds of the present invention showing a biodegradability of at least about 50% according to the OECD 301B testing method. In some embodiments, the compounds of the present invention have a biodegradability of between about 50% to about 81% according to the OECD 301B testing method.
(§1) Quat from example 3 was tested for biodegradability via method OECD 301B and Aquatic Toxicity via method OECD 202.

Series [2] can be described thus: Wet combing evaluation of lotions (combing force reduction). As for the experimental part:
Lotions with and without Example 3 Quat were prepared and evaluated for combing force reduction.

Series [3] can be described thus: Warehouse storage stability of flaked samples in a stability oven at 95° F. Format: physicochemical. Particulars: flaked sample, stability oven set at 95° F, after 8 weeks. As for the experimental part:
The diester compositions may be blended with, for example, alkylamidopropyl dimethylamines, such as Incromine BD supplied by Croda Inc., to yield a waxy flakeable or pastillatable composition with improved high temperature warehouse storage stability. Stability in this case being defined as resistance of the waxy particles from fusing together at elevated warehouse storage temperatures of about 95° F. Additional information on flakeability/pastillatability can be found in U.S. Pat. No. 6,638,497, the disclosure of which is hereby incorporated by reference herein.
In some embodiments, it is desirable that the diesters of the claimed invention be either liquids or waxy solids in pastille form at room temperature for ease of use. […] By adding behenamidopropydimethylamine, the high temperature storage stability of the diester was increased, allowing for it to be warehoused or transported in conditions were the temperature can exceed 95° F. without the pastilles fusing together.

The subject of the next series is daphnia magna. The series is described as follows: Aquatic toxicity via method OECD 202 (Daphnia sp. Acute Immobilization Test). Format: in vivo. The conditions noted are these: OECD 202, daphnia magna. As for the experimental part: In some embodiments, the compounds of the present invention are believed to have low aquatic toxicities. […] […] The testing methodology is described in “OECD Guideline for Testing of Chemicals,” section 202, the disclosure of which is incorporated by reference.
as §1

Where [4] appears, read: wet combing, lotion with 1.5 % Example 3 Quat, average of 10 tresses.

“Methosulfate QUAT of PPG-6 N-Methyldiethanolamine Di-Behenate [Example 3]” returned a Biodegraded in series [1] of 67%. Moreover, in series [2] (lotion with the quat, versus lotion without), the “Conditioning (in words)” value was “improved conditioning”. For the same substance, in series [2] (setting [4]), the “% Change of Combing Force (gmf)” value is listed as −84.62% and the “% Change of Total Work Done (Joules)” value is −88.76%. The “Warehouse storage stability (state of flakes)” value in series [3] was “fused together”. For the same substance, the “48 hour EC50 (aquatic toxicity)” value in the series with daphnia magna was > 100 mg/L.
